{"source": "patent US10111901B2", "about": "“Beta-glucan in combination with anti-cancer agents affecting the tumor microenvironment” (Biothera, Inc., priority 2014, dated 2018)", "key": {"M2 macrophages": {"test_system": "M2 macrophages", "assay": "Mac-CD4 T co-culture surface marker modulation on macrophages", "type": "cell-based, human", "protocol": "(§1) For evaluation of Mac-CD4 T cell surface marker modulation, M2 macrophages were co-cultured with T cells as described above and cells were harvested on day 8, day 9 and day 10 to perform surface receptor staining on both M2 macrophages and T cells.\n(§2) Changes in surface marker expression on both macrophages and CD3 & CD28-stimulated T cells were also measured. Vehicle- and β-glucan-treated M2 macrophages and CD T cells from the co-cultures were evaluated by flow cytometry for the modulation of co-stimulatory or co-inhibitory molecules. FIG. 8C and Table 9 are representative results from 2 different experiments."}, "CD4 T cells": {"test_system": "CD4 T cells", "assay": "Mac-CD4 T co-culture surface marker modulation on T cells", "type": "cell-based, human", "protocol": "as §1, §2"}, "Tregs (CD4+CD25+)": {"test_system": "Tregs (CD4+CD25+)", "assay": "Treg suppression assay", "type": "cell-based, human", "protocol": "Since these PBMC cultures contain Tregs, the suppressive ability of Tregs seem to be altered in the presence of soluble β-glucan and studies were carried out to determine if β-glucan affected Treg suppression. Plasma from β-glucan-treated or vehicle-treated whole blood (described above) was added to 25,000 isolated CFSE-labeled autologous CD4 T cells (CD4^+CD25^−) along with increasing numbers of isolated autologous Tregs (CD4^+CD25^+) resulting in wells with increasing ratios. Cells were then stimulated with 50,000 T cell activating CD3/28 beads for 3 days. Proliferation was subsequently measured by CFSE dilution and quantified by Division Index, which was used to calculate the % suppression of Tregs in the co-culture. % suppression=100−(Division Index of Treg well/Division Index of 1:0 well)[…].\nThe Treg suppression assay was conducted as described above, and after 3 days of co-culture, supernatants were analyzed for IFN-gamma production."}, "monocytes": {"test_system": "monocytes", "assay": "β-glucan binding to monocytes in whole blood, serum cross-over", "type": "cell-based, human", "protocol": "To test this, M2 macrophages were prepared as described above with a few modifications. The whole blood of a low binder was spun down to remove the plasma and then the cells were reconstituted with serum obtained from a high binder. The reconstituted blood was treated with vehicle or β-glucan (25 μg/mL) for 2 hours at 37° C. The monocytes were evaluated for binding by using anti-β-glucan specific monoclonal antibody and subsequent flow cytometry."}, "MiaPaCa": {"test_system": "MiaPaCa", "assay": "PD-L1 upregulation in MiaPaCa tumor cells by treated M2 macrophages", "type": "cell-based", "protocol": "β-glucan- and vehicle-treated M2 macrophages and β-glucan-treated M2 macrophages+ABA were cultured with high binder serum and low binder serum to evaluate PD-L1 expression on tumor cells."}, "[1]": {"settings": "relative to vehicle-treated M2 macrophages, co-culture"}, "[2]": {"settings": "T cells co-cultured with β-glucan-treated M2 macrophages relative to vehicle-treated"}}, "data": [{"substance": "β(1,6)-[poly-(1,3)-D-glucopyranosyl]-poly-β(1,3)-D-glucopyranose [β-glucan]", "values": [{"measurement": "Change in MFI on Macrophages: 4-1BBL", "setting": "M2 macrophages; [1]", "value": "No change"}, {"measurement": "Change in MFI on Macrophages: CD40", "setting": "M2 macrophages; [1]", "value": "No change"}, {"measurement": "Change in MFI on Macrophages: CD80", "setting": "M2 macrophages; [1]", "value": "No change"}, {"measurement": "Change in MFI on Macrophages: CD172", "setting": "M2 macrophages; [1]", "value": "No change"}, {"measurement": "Change in MFI on Macrophages: CD209", "setting": "M2 macrophages; [1]", "value": "No change"}, {"measurement": "Change in MFI on Macrophages: OX40", "setting": "M2 macrophages; [1]", "value": "No change"}, {"measurement": "Change in MFI on Macrophages: CD86", "setting": "M2 macrophages; relative to vehicle-treated M2 macrophages, co-culture (day 8)", "value": "Increase"}, {"measurement": "Change in MFI on Macrophages: PD-L1 (CD274)", "setting": "M2 macrophages; relative to vehicle-treated M2 macrophages, co-culture (day 9)", "value": "Increase"}, {"measurement": "Change in MFI on Macrophages: HLA-DR", "setting": "M2 macrophages; β-glucan-treated M2 macrophages relative to vehicle-treated, co-culture with CD3 & CD28-stimulated T cells", "value": "No change"}, {"measurement": "Change in MFI on T cells: 4-1BB", "setting": "CD4 T cells; [2]", "value": "No change"}, {"measurement": "Change in MFI on T cells: CD28", "setting": "CD4 T cells; [2]", "value": "No change"}, {"measurement": "Change in MFI on T cells: CD40L", "setting": "CD4 T cells; [2]", "value": "No change"}, {"measurement": "Change in MFI on T cells: CTLA-4", "setting": "CD4 T cells; [2]", "value": "No change"}, {"measurement": "Change in MFI on T cells: PD1 (CD279)", "setting": "CD4 T cells; T cells co-cultured with β-glucan-treated M2 macrophages relative to vehicle-treated (day 9)", "value": "Increase"}, {"measurement": "IFN-gamma production", "setting": "Tregs (CD4+CD25+); Treg suppression assay, 3 days, 8:1 T cell to Treg ratio", "value": "enhanced IFN-gamma production"}, {"measurement": "suppressive capacity of Tregs", "setting": "Tregs (CD4+CD25+); plasma from β-glucan-treated whole blood vs vehicle-treated", "value": "significant decreases"}, {"measurement": "binding of β-glucan to monocytes", "setting": "monocytes; low binder's whole blood with high binder's serum containing higher levels of ABA", "value": "significantly higher binding"}, {"measurement": "binding of β-glucan to monocytes", "setting": "monocytes; whole blood of a low binder", "value": "did not bind"}, {"measurement": "expression of PD-L1 on tumor cells", "setting": "MiaPaCa; β-glucan-treated M2 macrophages with addition of ABA, low binders", "value": "also increased expression"}, {"measurement": "expression of PD-L1 on tumor cells", "setting": "MiaPaCa; β-glucan-treated M2 macrophages, high binders", "value": "increased expression"}]}]}
